Assay results taken from US20170023550A1, “ENGINEERED THREE-DIMENSIONAL BREAST TISSUE, ADIPOSE TISSUE, AND TUMOR DISEASE MODEL” (Organovo, Inc., priority 2014, published 2017).

How the values were obtained:
Type in all cases: cell-based, human
[1] = system: bioprinted breast cancer constructs (MCF7/HUVEC cancer node surrounded by NHMF, HUVEC, SPA stroma); test: Construct viability after drug treatment by alamarBlue assay; details: 10 μM compound for 3 days, followed by 100 μM compound for 24 hours; FIG. 14
Text: The stromal compartment of the constructs was comprised of 65% NHMF, 25% HUVEC, and 10% SPA (partially pre-differentiated). The cancer compartment of the constructs was comprised of 75% MCF7, 25% HUVEC. For each compartment, cells were mixed together at the indicated ratio and resuspended in Novogel® 3.0 at a concentration of 150 million cells/ml. Constructs were printed as 3 layered structures with a dimension of 3 mm×3 mm×0.75 mm. Immediately following bioprinting, constructs were stabilized via crosslinking After 2 minutes, the calcium crosslinking solution was aspirated and replaced with culture media. After 2 days in culture, constructs were treated overnight with enzyme dissolved in culture media to remove the Novogel® 3.0. Constructs were then incubated for up to 9 additional days. All compounds were acquired from Sigma-Aldrich and were dissolved in DMSO. Compounds were diluted to a final concentration of 10 μM or 100 μM in media. The final DMSO concentration was 0.1%, which was used for vehicle treatment. Constructs were assessed for metabolic activity by alamarBlue assay (Life Technologies, Carlsbad, Calif.) or CellTiter Glo assay (Promega, Madison, Wis.). Constructs were treated for 24 hours for labeled compound uptake studies, or for 4 days for assessment of metabolic activity.

[2] = system: breast cancer cells in two-dimensional cell culture and bioprinted breast cancer tumor models; test: Tamoxifen drug response by ATP luciferase assay, two-dimensional breast cancer cell culture compared to bioprinted breast cancer tumor models; details: 10 μM tamoxifen for 48 hours; FIG. 20
Text: (§1) The breast cancer tumor models included a nodule of human breast cancer cells surrounded by a physiologically-relevant stromal layer, which included human adipocytes differentiated from human mesenchymal stem cells, human mammary fibroblasts, and human endothelial cells. The adipocytes were derived from mesenchymal stem cells which were isolated an exposed to an adipocyte differentiation signal prior to preparation of the bio-ink and bioprinting.
The breast cancer tumor models were exposed to chemotherapy compounds in order to access drug response. Referring to FIG. 20, breast cancer cells grown in two-dimensional cell culture (A) and the bioprinted breast cancer tumor models (B) were treated with media alone, DMSO, or 10 μM tamoxifen for 48 hours and assessed for viability by ATP luciferase assay. For each graph, * indicates p<0.05 for treatment compared to control.

[3] = system: bioprinted breast cancer tumor models (cancer and stromal compartments); test: Apoptosis by TUNEL staining with CK8 and TE7 markers in bioprinted breast cancer tumor model; details: 100 μM cisplatin for 4 days; FIG. 22
Text: as §1
Referring to FIG. 22, bioprinted tissues were treated with vehicle (A-C) or 100 μM cisplatin (D-F) for 4 days. The first (A and D) and second (B and E) columns depict tissues assessed for apoptosis by TUNEL staining (green) and markers for cancer cells (CK8, red). The last ([…]) column depicts tissues assessed for apoptosis by TUNEL staining (green) and markers for fibroblasts (TE7, red).

| SMILES | construct viability relative to media or vehicle controls (alamarBlue) [1] | susceptibility to tamoxifen-induced toxicity, two-dimensional cancer cells vs three-dimensional bioprinted constructs (viability by ATP luciferase assay) [2] | apoptosis by TUNEL staining, stromal compartment vs cancer compartment [3] |
| --- | --- | --- | --- |
| CC(=O)O[C@H]1C(=O)[C@@]2(C)[C@H]([C@H](OC(=O)c3ccccc3)[C@]3(O)C[C@H](OC(=O)[C@H](O)[C@@H](NC(=O)c4ccccc4)c4ccccc4)C(C)=C1C3(C)C)[C@]1(OC(C)=O)CO[C@@H]1C[C@@H]2O [paclitaxel] | decreased construct viability |  |  |
| CC/C(=C(\c1ccccc1)c1ccc(OCCN(C)C)cc1)c1ccccc1 [tamoxifen] |  | more susceptible to tamoxifen-induced toxicity than cells incorporated into three-dimensional bioprinted constructs |  |
| N.N.[Cl][Pt][Cl] [Cisplatin, cisplatin] | decreased construct viability |  | induces greater apoptosis in the stromal compartment of bioprinted tissues than in the cancer compartment |
